In brackets after ≈: the same amount, converted by molar mass. Where only a bound is given, the exact number is not on record here.

This is an account of results in US5459146A, “4-substituted pyrazoloquinoline derivatives” (Schering Corporation, priority 1993, dated 1995).

Series [1] can be described thus: compound toxicity assay (3H-LEU). It counts as cell-based. As for the experimental part:
(§1) The compound toxicity assay (3H-LEU), Plaque Reduction Assay for HSV Antiviral Activity (Plaque), and Transient Expression Assay for Effects Against HSV Early Gene Expression (β Galactosidase Assay or βgal) were carried out as set forth in U.S. Pat. No. 5,175,151 which is hereby incorporated by reference.

Series [2] deals with HSV Early Gene Expression. As to the kind of experiment: Transient Expression Assay for Effects Against HSV Early Gene Expression (β Galactosidase Assay or βgal). The conditions noted are these: read-out: βgal. It counts as cell-based. The protocol:
as §1

For series [3], the system named is HSV. As to the kind of experiment: Plaque Reduction Assay for HSV Antiviral Activity (Plaque). In kind it is cell-based. As for the experimental part: as §1
On the technique in general: Plaque reduction counts the foci of infection that form in a cell layer.

The next series has as its system herpes virus. The conditions noted are these: U.S. Pat. No. 4,757,088; cited from earlier work.
Series [4] deals with HSV. The note with it: Haines et al.; cited from earlier work.
Another series deals with HSV-2. The conditions noted are these: U.S. Pat. No. 4,757,088; cited from earlier work.
A further series has as its system HSV-1. The conditions noted are these: U.S. Pat. No. 4,757,088; cited from earlier work.
The subject of the next series is HSV-1 and HSV-2. The note with it: added to lidocaine or lidocaine hydrochloride; Haines et al.; cited from earlier work.

For the molecule `COc1ccc2nc3c(c(C)nn3C(C)=O)c(O)c2c1` [E], the midpoint of cytotoxicity in series [1], the CC50, lay at 23 µg/mL (≈ 84.8 µM). The IC50 in series [2] was 3 µg/mL (≈ 11.1 µM).

With `CCCCCCCn1nc(C)c2c(OC(C)=O)c3cc(C)ccc3nc21` [M], the CC50 – broadly, the concentration giving 50% cytotoxicity – in series [1] was under 1 µg/mL. Also, the IC50 in series [2] was found to be 3 µg/mL (≈ 8.49 µM).

Take `CCC(=O)Oc1ccc2nc3[nH]nc(C)c3c(OC(=O)CC)c2c1` [D]: in series [2], the IC50 is 11 µg/mL (≈ 33.6 µM).

`COc1cccc2c(O)c3c(C)nn(C(C)=O)c3nc12` [N] had a CC50 in series [1] of 100 µg/mL (≈ 369 µM). For the same molecule, the IC50 in series [2] is 3 µg/mL (≈ 11.1 µM).

Take `CC(=O)Oc1ccc2nc3[nH]nc(C)c3c(OC(C)=O)c2c1` [A]: the CC50 in series [1] amounted to 14 µg/mL (≈ 46.8 µM). Further, the IC50 in series [2] was 3 µg/mL (≈ 10 µM).

`CC(=O)Oc1c2cc(F)ccc2nc2[nH]nc(C)c12` [G] displayed a CC50 in series [1] of 43 µg/mL (≈ 166 µM). In addition, in series [2], the IC50 turned out to be 3 µg/mL (≈ 11.6 µM).

With `CC(=O)Oc1ccc2nc3c(c(C)nn3C(C)=O)c(O)c2c1` [B], the CC50 in series [1] is 15 µg/mL (≈ 50.1 µM). Also, the IC50 in series [2] is 8 µg/mL (≈ 26.7 µM).

On to `CCCCCCCn1nc(C)c2c(=O)c3cc(C)ccc3[nH]c21` [L], for which half-maximal cytotoxicity in series [1] (CC50) was put at 3.4 µg/mL (≈ 10.9 µM). Further, in series [2], the IC50 stood at 3 µg/mL (≈ 9.63 µM).

For the molecule `CC(=O)n1nc(C)c2c(O)c3cc(F)ccc3nc21` [H], in series [1], the CC50 is 32 µg/mL (≈ 123 µM). Also, the IC50 in series [2] is 2 µg/mL (≈ 7.71 µM).

Consider `COc1ccc2nc3c(c(C)nn3CCCO)c(OC)c2c1` [P], for which the IC50 was over 20 µg/mL with HSV [3] and 7.2 µg/mL (≈ 23.9 µM) in series [2].

In the case of `CCN(CC)CC(=O)Nc1c(C)cccc1C` [lidocaine, 2-(diethylamino)-N-(2,6-dimethylphenyl)acetamide], the “treatment of herpes virus infections of mammals” value with herpes virus was “able to treat herpes virus infections of mammals”. In addition, the “treatment of HSV oral and genital lesions in humans” value with HSV [4] is “particularly effective”. In addition, in the series on HSV-2, the “antiviral activity in cell culture against HSV-2” value was “antiviral agent”. In addition, the “antiviral activity in cell culture against HSV-1” value in the series with HSV-1 is “antiviral agent”.

The molecule `CCCCCCCn1nc(C)c2c(OC(C)=O)c3cc(OC)ccc3nc21` [I] yielded a CC50 in series [1] of under 1 µg/mL. For the same molecule, in series [2], the IC50 worked out at 2.8 µg/mL (≈ 7.58 µM).

As for `CCCCC(=O)Oc1ccc2nc3[nH]nc(C)c3c(OC(=O)CCCC)c2c1` [C], half-maximal cytotoxicity in series [1] (CC50) was put at 5 µg/mL (≈ 13 µM). In addition, in series [2], the IC50 turned out to be 5 µg/mL (≈ 13 µM).

`CC(=O)n1nc(C)c2c(O)c3cc(Cl)ccc3nc21` [F] came in with a CC50 in series [1] of 37 µg/mL (≈ 134 µM). In addition, the IC50 in series [2] is 9 µg/mL (≈ 32.6 µM).

For `COc1cc(C)c2[nH]c3c(c(C)nn3C(C)=O)c(=O)c2c1` [K], the CC50 in series [1] was over 100 µg/mL. Also, the IC50 in series [2] was 5 µg/mL (≈ 17.5 µM).

On to `CC(C)(CO)[C@@H](O)C(=O)NCCCO` [dexpanthenol], for which, in the series on HSV-1 and HSV-2, the “antiviral activity of lidocaine or lidocaine hydrochloride on addition of the substance” value is listed as “significantly enhances”.

As to `CC(=O)n1nc(C)c2c(O)c3cc(C)ccc3nc21` [J], the CC50 in series [1] is 100 µg/mL (≈ 392 µM). The IC50 in series [2] amounted to 9 µg/mL (≈ 35.3 µM).

Take `COc1ccc2nc3[nH]nc(C)c3c(OCCN(C)C)c2c1` [O]: the midpoint of cytotoxicity in series [1], the CC50, lay at 5.4 µg/mL (≈ 18 µM). Further, the figures for the IC50 (in the series on HSV [3]; in series [2]) were 0.7 µg/mL (≈ 2.33 µM) and 1.4 µg/mL (≈ 4.66 µM), respectively.

In the case of `C=CCOc1ccc2nc3c(c(C)nn3CC=C)c(O)c2c1` [R], the IC50 (with HSV [3]; in series [2]) was 20 µg/mL (≈ 67.7 µM) throughout.

With `COc1ccc2nc3[nH]nc(C)c3c(OCCN3CCOCC3)c2c1` [Q], the IC50 (in the series with HSV [3]; in series [2]) was 20 µg/mL (≈ 58.4 µM) each time.

Take `CC(C)(CO)[C@@H](O)C(=O)NCCC(=O)O` [panthothenic acid]: in the series with HSV-1 and HSV-2, the “antiviral activity of lidocaine or lidocaine hydrochloride on addition of the substance” value was “significantly enhances”.
